This test can be described thus: HCV replicon assay (luciferase reporter, ET cell line). Format: cell-based. The following applies: Hepatitis C virus, HCV replicon luciferase activity in ET cells. In a few lines:
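ET cells carry a stable luciferase-ubiquitin-neo/NS3-5B subgenomic HCV replicon with adaptive mutations. Compounds (0.1 nM to […], 0.5% DMSO) were added 24 h after plating, and luciferase was read 48-72 h later. EC50 came from 10-point 2-fold dilutions fitted to a Hill equation; TC50 was measured in parallel by WST-1.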
In general terms: In antiviral work, replicon cells carry a viral genome segment that copies itself.

Turning to `COC(=O)Cc1c(C(=O)N2CCC(c3ccc(F)cc3)C2)nc2c(C(F)(F)F)cc(-c3ccoc3)cn12` (stereo not drawn) [Compound 235, {2-[3-(4-Fluoro-phenyl)-pyrrolidine-1-carbonyl]-6-furan-3-yl-8-trifluoromethyl-imidazo[1,2-a]pyridin-3-yl}-acetic Acid Methyl Ester], at 10 µM the inhibition was 96.6%.

As for `O=C(O)Cc1c(C(=O)N2CCC(c3ccc(F)cc3)C2)nc2c(C(F)(F)F)cc(-c3ccoc3)cn12` (stereo not drawn) [Compound 236, {2-[3-(4-Fluoro-phenyl)-pyrrolidine-1-carbonyl]-6-furan-3-yl-8-trifluoromethyl-imidazo[1,2-a]pyridin-3-yl}-acetic Acid], the inhibition (usually the percentage by which the read-out fell short of the control) at 10 µM was 49%.

`O=C(c1nc2c(C(F)(F)F)cc(-c3cn[nH]c3)cn2c1Cl)N1CCC(c2ccc(F)cc2)C1` (stereo not drawn) [Compound 238, [3-Chloro-6-(1H-pyrazol-4-yl)-8-trifluoromethyl-imidazo[1,2-a]pyridin-2-yl]-[3-(4-fluoro-phenyl)-pyrrolidin-1-yl]-methanone] returned an inhibition at 10 µM of 86.9%.

Molecule `NC(=O)Cc1c(C(=O)N2CCC(c3ccc(F)cc3)C2)nc2c(C(F)(F)F)cc(-c3ccoc3)cn12` (stereo not drawn) [Compound 239, 2-{2-[3-(4-Fluoro-phenyl)-pyrrolidine-1-carbonyl]-6-furan-3-yl-8-trifluoromethyl-imidazo[1,2-a]pyridin-3-yl}-acetamide] registered an inhibition at 10 µM of 53%.

Turning to `O=C(Cc1c(C(=O)N2CCC(c3ccc(F)cc3)C2)nc2c(C(F)(F)F)cc(-c3ccoc3)cn12)NCc1ccccc1` (stereo not drawn) [Compound 240, N-Benzyl-2-{2-[3-(4-fluoro-phenyl)-pyrrolidine-1-carbonyl]-6-furan-3-yl-8-trifluoromethyl-imidazo[1,2-a]pyridin-3-yl}-acetamide], 10 µM produced 33.4% inhibition.

Molecule `CN(C)CCNC(=O)Cc1c(C(=O)N2CCC(c3ccc(F)cc3)C2)nc2c(C(F)(F)F)cc(-c3ccoc3)cn12` (stereo not drawn) [Compound 241, N-(2-Dimethylamino-ethyl)-2-{2-[3-(4-fluoro-phenyl)-pyrrolidine-1-carbonyl]-6-furan-3-yl-8-trifluoromethyl-imidazo[1,2-a]pyridin-3-yl}-acetamide] gave an inhibition at 10 µM of 100%.

Consider `O=C(Cc1c(C(=O)N2CCC(c3ccc(F)cc3)C2)nc2c(C(F)(F)F)cc(-c3ccoc3)cn12)NC1CC1` (stereo not drawn) [Compound 242, N-Cyclopropyl-2-{2-[3-(4-fluoro-phenyl)-pyrrolidine-1-carbonyl]-6-furan-3-yl-8-trifluoromethyl-imidazo[1,2-a]pyridin-3-yl}-acetamide], for which 10 µM produced 93% inhibition.

The molecule `Cc1noc(Cc2c(C(=O)N3CCC(c4ccc(F)cc4)C3)nc3c(C(F)(F)F)cc(-c4ccoc4)cn23)n1` (stereo not drawn) [Compound 243, [3-(4-Fluoro-phenyl)-pyrrolidin-1-yl]-[6-furan-3-yl-3-(3-methyl-[1,2,4]oxadiazol-5-ylmethyl)-8-trifluoromethyl-imidazo[1,2-a]pyridin-2-yl]-methanone] gave an inhibition at 10 µM of 86.2%.

Turning to `CNC(=O)Cc1c(C(=O)N2CCC(c3ccc(F)cc3)C2)nc2c(C(F)(F)F)cc(-c3ccoc3)cn12` (stereo not drawn) [Compound 245, 2-{2-[3-(4-Fluoro-phenyl)-pyrrolidine-1-carbonyl]-6-furan-3-yl-8-trifluoromethyl-imidazo[1,2-a]pyridin-3-yl}-N-methyl-acetamide], testing at 10 µM gave an inhibition of 63.9%.

`O=C(NCc1cccs1)c1cn2nc(-c3ccccc3)cc(C(F)(F)F)c2n1` [Compound 248, 6-Phenyl-8-trifluoromethyl-imidazo[1,2-b]pyridazine-2-carboxylic Acid (thiophen-2-ylmethyl)-amide] gave an inhibition at 10 µM of 45.8%.

In turn, `O=C(NCc1cccs1)c1nc2c(C(F)(F)F)cc(-c3ccccc3)nn2c1Cl` [Compound 249, 3-Chloro-6-phenyl-8-trifluoromethyl-imidazo[1,2-b]pyridazine-2-carboxylic Acid(thiophen-2-ylmethyl)-amide] came in with an inhibition at 10 µM of 81.4%.

The molecule `O=C(NCc1cccs1)c1nc2c(C(F)(F)F)cc(-c3ccccc3)nn2c1Br` [Compound 250, 3-Bromo-6-phenyl-8-trifluoromethyl-imidazo[1,2-b]pyridazine-2-carboxylic Acid(thiophen-2-ylmethyl)-amide] returned an inhibition at 10 µM of 92%.

Consider `O=C(c1cn2cc(-c3ccoc3)cc(C(F)(F)F)c2n1)N1CCC(c2ccc(F)cc2)C1` (stereo not drawn) [Compound 251, [3-(4-Fluoro-phenyl)-pyrrolidin-1-yl]-(6-furan-3-yl-8-trifluoromethyl-imidazo[1,2-a]pyridin-2-yl)-methanone], for which 10 µM produced 93.4% inhibition.

In the case of `O=C(c1nc2c(C(F)(F)F)cc(-c3ccccc3)nn2c1Br)N1CCC(c2ccc(F)cc2)C1` (stereo not drawn) [Compound 252, (3-Bromo-6-phenyl-8-trifluoromethyl-imidazo[1,2-b]pyridazin-2-yl)-[3-(4-fluoro-phenyl)-pyrrolidin-1-yl]-methanone], the inhibition at 10 µM came out at 84.8%.

In the case of `O=C(c1nc2c(C(F)(F)F)cc(-c3ccoc3)cn2c1Br)N1CCC(c2ccc(F)cc2)C1` (stereo not drawn) [Compound 253, (3-Bromo-6-furan-3-yl-8-trifluoromethyl-imidazo[1,2-a]pyridin-2-yl)-[3-(4-fluoro-phenyl)-pyrrolidin-1-yl]-methanone], testing at 10 µM gave an inhibition of 98%.

With `O=C(c1nc2c(C(F)(F)F)cc(-c3ccoc3)cn2c1-c1ccoc1)N1CCC(c2ccc(F)cc2)C1` (stereo not drawn) [Compound 254, (3,6-Di-furan-3-yl-8-trifluoromethyl-imidazo[1,2-a]pyridin-2-yl)-[3-(4-fluoro-phenyl)-pyrrolidin-1-yl]-methanone], 10 µM produced 46.9% inhibition.

As to `O=C(c1cn2cc(-c3cn[nH]c3)cc(C(F)(F)F)c2n1)N1CCC(c2ccc(F)cc2)C1` (stereo not drawn) [Compound 255, [3-(4-Fluoro-phenyl)-pyrrolidin-1-yl]-[6-(1H-pyrazol-4-yl)-8-trifluoromethyl-imidazo[1,2-a]pyridin-2-yl]-methanone], the inhibition at 10 µM was 76.6%.

As to `O=C(c1nc2c(C(F)(F)F)cc(-c3cn[nH]c3)cn2c1Br)N1CCC(c2ccc(F)cc2)C1` (stereo not drawn) [Compound 256, [3-Bromo-6-(1H-pyrazol-4-yl)-8-trifluoromethyl-imidazo[1,2-a]pyridin-2-yl]-[3-(4-fluoro-phenyl)-pyrrolidin-1-yl]-methanone], 10 µM produced 92% inhibition.

For `O=C(c1nc2c(C(F)(F)F)cc(-c3cn[nH]c3)cn2c1Cl)N1CCC(c2ccccc2F)C1` (stereo not drawn) [Compound 257, [3-Chloro-6-(1H-pyrazol-4-yl)-8-trifluoromethyl-imidazo[1,2-a]pyridin-2-yl]-[3-(2-fluoro-phenyl)-pyrrolidin-1-yl]-methanone], testing at 10 µM gave an inhibition of 92.2%.

As to `O=C(c1nc2c(C(F)(F)F)cc(-c3cn[nH]c3)cn2c1Cl)N1CCC(c2cccc(F)c2)C1` (stereo not drawn) [Compound 258, [3-Chloro-6-(1H-pyrazol-4-yl)-8-trifluoromethyl-imidazo[1,2-a]pyridin-2-yl]-[3-(3-fluoro-phenyl)-pyrrolidin-1-yl]-methanone], 10 µM produced 91% inhibition.

For `O=C(c1nc2c(C(F)(F)F)cc(-c3ccoc3)cn2c1Cl)N1CC=C(c2ccccc2)C1` [Compound 259, (3-chloro-6-furan-3-yl-8-trifluoromethyl-imidazo[1,2-a]pyridin-2-yl)-(3-phenyl-2,5-dihydro-pyrrol-1-yl)-methanone], the inhibition at 10 µM came to 99.4%.

`O=C(c1nc2c(C(F)(F)F)cc(-c3ccoc3)cn2c1Cl)N1CCC(c2ccccc2)C1` (stereo not drawn) [Compound 260, (3-Chloro-6-furan-3-yl-8-trifluoromethyl-imidazo[1,2-a]pyridin-2-yl)-(3-phenyl-pyrrolidin-1-yl)-methanone] registered an inhibition at 10 µM of 96%.

`O=C(c1nc2c(C(F)(F)F)cc(-c3ccoc3)cn2c1Cl)N1CC[C@H](c2ccccc2)C1` [Compound 261, (3-Chloro-6-furan-3-yl-8-trifluoromethyl-imidazo[1,2-a]pyridin-2-yl)-(3-(R)-phenyl-pyrrolidin-1-yl)-methanone]: the inhibition at 10 µM stood at 87.9%.

Take `O=C(c1nc2c(C(F)(F)F)cc(-c3ccoc3)cn2c1Cl)N1CC[C@@H](c2ccccc2)C1` [Compound 262, (3-Chloro-6-furan-3-yl-8-trifluoromethyl-imidazo[1,2-a]pyridin-2-yl)-(3-(S)-phenyl-pyrrolidin-1-yl)-methanone]: 10 µM produced 97.3% inhibition.

Consider `O=C(NCc1cccs1)c1nc2c(-c3ccoc3)cc(-c3ccccc3)cn2c1Cl` [Compound 263], for which the inhibition at 10 µM was 60.3%.

In the case of `CCN(CC)C(=O)/C=C/c1cc(-c2ccccc2)cn2c(Cl)c(C(=O)NCc3cccs3)nc12` [Compound 268, 3-Chloro-8-((E/Z)-2-diethylcarbamoyl-vinyl)-6-phenyl-imidazo[1,2-a]pyridine-2-carboxylic Acid (thiophen-2-ylmethyl)-amide], the inhibition at 10 µM came out at 40.2%.

The molecule `O=C(c1nc2c(C(F)(F)F)cc(-c3ccoc3)cn2c1Cl)N1CCC(c2ccccc2F)CC1` [Compound 275, (3-chloro-6-furan-3-yl-8-trifluoromethyl-imidazo[1,2-a]pyridine-2-yl)-[4-(2-fluoro-phenyl)-piperidin-1-yl]-methanone] had an inhibition at 10 µM of 97.8%.

Molecule `O=C(c1nc2c(C(F)(F)F)cc(-c3ccoc3)cn2c1Cl)N1CCC(c2cccc(F)c2)CC1` [Compound 276, (3-Chloro-6-furan-3-yl-8-trifluoromethyl-imidazo[1,2-a]pyridine-2-yl)-[4-(3-fluoro-phenyl)-piperidin-1-yl]-methanone] returned an inhibition at 10 µM of 74%.

The molecule `O=C(c1nc2c(C(F)(F)F)cc(-c3ccoc3)cn2c1Cl)N1CCC(c2ccc(F)cc2)CC1` [Compound 277, (3-Chloro-6-furan-3-yl-8-trifluoromethyl-imidazo[1,2-a]pyridine-2-yl)-[4-(4-fluoro-phenyl)-piperidin-1-yl]-methanone] yielded an inhibition at 10 µM of 71.7%.

`O=C(NCc1cccs1)c1nc2c(C(F)(F)F)cc(-c3cc[nH]c3)cn2c1Cl` [Compound 279, 3-Chloro-6-(1H-pyrrol-3-yl)-8-trifluoromethyl-imidazo[1,2-a]pyridine-2-carboxylic Acid(thiophen-2-ylmethyl)-amide] gave an inhibition at 10 µM of 95.8%.

The values are drawn from patent publication US20120121540A1 (priority 2007, published 2012).
